Results on 1 molecule are retold here after ChEMBL document CHEMBL3867480 (Bioorg Med Chem, 2016).

Each structure is given as a SMILES string. Converted amounts (≈) assume the structure as drawn.

For one data set, the target named is CYP3A4 (Homo sapiens, UniProt P08684). As to the kind of experiment: Inhibition of CYP3A4 (unknown origin) at 10 uM. It counts as ADME.
The nature of data set [1]: Permeability of the compound at pH 7.4 by PAMPA assay. In kind it is ADME. As to conditions: read-out: permeability. A general note: The PAMPA barrier holds no transporters, so it reflects passive diffusion.
A further data set addresses T1, Matrilysin (Homo sapiens, UniProt P09237).
T1 sequence (P09237 whole entry): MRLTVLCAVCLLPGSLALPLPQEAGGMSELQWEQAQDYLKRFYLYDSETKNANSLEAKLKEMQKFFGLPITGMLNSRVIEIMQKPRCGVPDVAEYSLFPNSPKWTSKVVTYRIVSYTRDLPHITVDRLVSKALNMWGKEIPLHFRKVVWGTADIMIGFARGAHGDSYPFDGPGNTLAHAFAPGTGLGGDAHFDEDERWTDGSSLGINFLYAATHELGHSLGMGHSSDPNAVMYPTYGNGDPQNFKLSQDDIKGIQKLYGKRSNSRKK
In words: Inhibition of recombinant human […]-activated MMP7 using Cy3-PLGLK(Cy5Q)AR-NH2 as substrate measured after 40 mins by spectrofluorimetric method.

The target of another data set is Collagenase 3 (Homo sapiens, UniProt P45452).
Data set [2] can be described thus: Oral bioavailability in rat at 1 mg/kg. It counts as ADME, organism-based. The note with it: in vivo.
The next data set concerns the target Stromelysin-2 (Homo sapiens, UniProt P09238). In words: Inhibition of recombinant human […]-activated MMP10 using Cy3-PLGLK(Cy5Q)AR-NH2 as substrate measured after 40 mins by spectrofluorimetric method.
The nature of data set [3]: Clearance in human liver microsomes. In kind it is ADME. The note with it: read-out: CLH.
Data set [4] can be described thus: Clearance in rat at 0.1 mg/kg, iv or 1 mg/kg, po. It counts as ADME, organism-based. The note with it: in vivo.
Data set [5] in a line: Clearance in rat liver microsomes. It counts as ADME. The note with it: read-out: CLH. For orientation: Microsomes from liver hold many membrane-bound enzymes, among them those of drug oxidation.
For data set [6], the target named is Macrophage metalloelastase (Homo sapiens, UniProt P39900). As to the kind of experiment: Inhibition of recombinant human […]-activated MMP12 using Cy3-PLGLK(Cy5Q)AR-NH2 as substrate measured after 40 mins by spectrofluorimetric method.
Chain of Macrophage metalloelastase (P39900 whole entry): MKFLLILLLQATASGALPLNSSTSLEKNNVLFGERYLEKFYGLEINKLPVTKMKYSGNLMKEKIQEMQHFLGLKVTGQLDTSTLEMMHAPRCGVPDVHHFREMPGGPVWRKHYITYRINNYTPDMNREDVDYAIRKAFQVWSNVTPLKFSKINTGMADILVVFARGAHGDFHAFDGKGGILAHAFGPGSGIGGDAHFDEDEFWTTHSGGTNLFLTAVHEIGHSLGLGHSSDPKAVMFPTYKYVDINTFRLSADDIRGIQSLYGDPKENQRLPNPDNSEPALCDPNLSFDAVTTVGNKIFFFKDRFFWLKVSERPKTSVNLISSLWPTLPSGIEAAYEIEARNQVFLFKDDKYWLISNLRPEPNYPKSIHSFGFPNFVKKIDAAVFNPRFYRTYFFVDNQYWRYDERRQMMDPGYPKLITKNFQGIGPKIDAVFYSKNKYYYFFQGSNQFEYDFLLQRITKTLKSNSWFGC
For data set [7], the target named is Matrix metalloproteinase-9 (Homo sapiens, UniProt P14780). In words: Inhibition of recombinant human […]-activated MMP9 using Cy3-PLGLK(Cy5Q)AR-NH2 as substrate measured after 40 mins by spectrofluorimetric method.
Chain of Matrix metalloproteinase-9 (P14780 whole entry): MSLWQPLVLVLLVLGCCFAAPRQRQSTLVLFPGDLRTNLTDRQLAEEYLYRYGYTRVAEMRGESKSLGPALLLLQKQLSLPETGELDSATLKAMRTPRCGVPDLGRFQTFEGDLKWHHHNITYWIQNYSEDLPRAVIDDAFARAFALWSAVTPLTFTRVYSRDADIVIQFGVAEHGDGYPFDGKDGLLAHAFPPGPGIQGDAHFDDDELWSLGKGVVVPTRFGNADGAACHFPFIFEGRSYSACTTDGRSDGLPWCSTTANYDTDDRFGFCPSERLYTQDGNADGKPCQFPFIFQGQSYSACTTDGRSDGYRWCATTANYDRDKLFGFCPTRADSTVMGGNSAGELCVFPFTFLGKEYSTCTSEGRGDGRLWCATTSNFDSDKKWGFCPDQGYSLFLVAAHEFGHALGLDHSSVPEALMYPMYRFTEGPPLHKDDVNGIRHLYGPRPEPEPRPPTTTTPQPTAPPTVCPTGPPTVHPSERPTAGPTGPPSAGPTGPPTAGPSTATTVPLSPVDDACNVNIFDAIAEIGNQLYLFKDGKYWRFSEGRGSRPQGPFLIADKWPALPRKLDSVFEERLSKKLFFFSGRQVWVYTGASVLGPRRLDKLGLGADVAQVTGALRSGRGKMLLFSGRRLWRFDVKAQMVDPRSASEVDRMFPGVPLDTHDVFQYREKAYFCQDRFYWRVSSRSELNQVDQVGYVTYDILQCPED
Data set [8] addresses 72 kDa type IV collagenase (Homo sapiens, UniProt P08253). As to the kind of experiment: Inhibition of recombinant human […]-activated MMP2 using Cy3-PLGLK(Cy5Q)AR-NH2 as substrate measured after 40 mins by spectrofluorimetric method.
A short description of data set [9]: Solubility of the compound at pH 6.8. In kind it is physicochemical. As to conditions: buffer.
For data set [10], the target named is Disintegrin and metalloproteinase domain-containing protein 17 (Homo sapiens, UniProt P78536). In words: Inhibition of recombinant human TACE using Cy3-PLAQAV(Cy5Q-L-2,3-diaminopropionic acid)-RSSSR-NH2 as substrate measured after 40 mins by spectrofluorimetric method.
Chain of Disintegrin and metalloproteinase domain-containing protein 17 (P78536 whole entry, the tested form may be a part): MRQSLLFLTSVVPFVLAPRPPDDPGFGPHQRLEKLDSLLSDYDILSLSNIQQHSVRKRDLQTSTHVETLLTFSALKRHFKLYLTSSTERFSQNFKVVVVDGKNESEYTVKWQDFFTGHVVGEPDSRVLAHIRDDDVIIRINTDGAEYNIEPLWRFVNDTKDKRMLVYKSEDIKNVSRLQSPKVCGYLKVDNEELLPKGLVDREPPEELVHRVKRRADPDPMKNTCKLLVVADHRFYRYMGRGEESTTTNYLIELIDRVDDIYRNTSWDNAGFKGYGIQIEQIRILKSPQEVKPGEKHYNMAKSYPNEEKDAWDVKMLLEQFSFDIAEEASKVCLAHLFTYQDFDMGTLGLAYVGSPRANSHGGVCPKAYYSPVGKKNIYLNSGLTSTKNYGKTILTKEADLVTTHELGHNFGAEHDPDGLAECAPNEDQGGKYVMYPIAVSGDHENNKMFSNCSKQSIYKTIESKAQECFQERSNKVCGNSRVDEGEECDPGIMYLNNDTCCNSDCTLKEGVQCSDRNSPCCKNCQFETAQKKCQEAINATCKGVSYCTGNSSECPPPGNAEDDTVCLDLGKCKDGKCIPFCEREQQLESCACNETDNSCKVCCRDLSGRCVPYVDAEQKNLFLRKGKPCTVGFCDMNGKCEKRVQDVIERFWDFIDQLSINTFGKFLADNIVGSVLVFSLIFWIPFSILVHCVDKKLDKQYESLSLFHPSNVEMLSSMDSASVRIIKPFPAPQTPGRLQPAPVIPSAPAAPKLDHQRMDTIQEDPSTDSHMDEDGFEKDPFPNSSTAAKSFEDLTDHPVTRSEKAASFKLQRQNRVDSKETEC
The next data set addresses Neutrophil collagenase (Homo sapiens, UniProt P22894). In words: Inhibition of recombinant human […]-activated MMP8 using Cy3-PLGLK(Cy5Q)AR-NH2 as substrate measured after 40 mins by spectrofluorimetric method.
The next data set deals with T2, Interstitial collagenase (Homo sapiens, UniProt P03956).
T2 sequence (P03956 whole entry): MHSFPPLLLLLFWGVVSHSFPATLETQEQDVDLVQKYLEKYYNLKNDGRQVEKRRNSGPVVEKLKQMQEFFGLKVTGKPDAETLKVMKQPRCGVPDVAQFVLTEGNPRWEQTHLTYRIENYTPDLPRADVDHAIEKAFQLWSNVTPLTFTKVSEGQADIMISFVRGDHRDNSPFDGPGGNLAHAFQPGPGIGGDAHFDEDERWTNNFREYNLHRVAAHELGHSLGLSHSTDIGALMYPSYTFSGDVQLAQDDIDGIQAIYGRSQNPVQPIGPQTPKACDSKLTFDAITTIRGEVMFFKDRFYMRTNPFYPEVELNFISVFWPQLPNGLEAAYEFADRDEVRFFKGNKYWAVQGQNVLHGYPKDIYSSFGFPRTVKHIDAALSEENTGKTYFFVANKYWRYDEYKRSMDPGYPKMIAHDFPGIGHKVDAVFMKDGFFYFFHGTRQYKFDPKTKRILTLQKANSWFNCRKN
As to the kind of experiment: Inhibition of recombinant human […]-activated MMP1 using Cy3-PLGLK(Cy5Q)AR-NH2 as substrate measured after 40 mins by spectrofluorimetric method.

In data set [11] the target is Matrix metalloproteinase-14 (Homo sapiens, UniProt P50281). As to the kind of experiment: Inhibition of recombinant human GST-tagged MMP14 using Cy3-PLGLK(Cy5Q)AR-NH2 as substrate measured after 40 mins by spectrofluorimetric method.
Another data set concerns the target Stromelysin-1 (Homo sapiens, UniProt P08254). As to the kind of experiment: Inhibition of recombinant human […]-activated MMP3 using Cy3-PLGLK(Cy5Q)AR-NH2 as substrate measured after 40 mins by spectrofluorimetric method.
Data set [12] in a line: Volume of distribution in rat at 0.1 mg/kg, iv or 1 mg/kg, po. The note with it: in vivo. It counts as ADME, organism-based.

Chain of Stromelysin-2 (P09238 whole entry): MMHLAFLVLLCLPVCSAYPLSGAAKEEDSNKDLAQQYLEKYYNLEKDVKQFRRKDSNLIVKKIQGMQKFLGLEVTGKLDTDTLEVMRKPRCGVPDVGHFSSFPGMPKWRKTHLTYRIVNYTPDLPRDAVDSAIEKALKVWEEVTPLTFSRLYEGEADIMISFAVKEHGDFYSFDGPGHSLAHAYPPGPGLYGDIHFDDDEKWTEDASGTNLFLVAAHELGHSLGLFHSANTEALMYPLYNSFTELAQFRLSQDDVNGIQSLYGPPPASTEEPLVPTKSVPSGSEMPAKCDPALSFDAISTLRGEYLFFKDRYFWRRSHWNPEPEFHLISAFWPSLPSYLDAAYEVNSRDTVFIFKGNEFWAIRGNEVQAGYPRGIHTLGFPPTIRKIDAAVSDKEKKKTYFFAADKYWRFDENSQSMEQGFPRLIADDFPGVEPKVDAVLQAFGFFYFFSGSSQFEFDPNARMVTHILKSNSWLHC
Chain of Stromelysin-1 (P08254 whole entry): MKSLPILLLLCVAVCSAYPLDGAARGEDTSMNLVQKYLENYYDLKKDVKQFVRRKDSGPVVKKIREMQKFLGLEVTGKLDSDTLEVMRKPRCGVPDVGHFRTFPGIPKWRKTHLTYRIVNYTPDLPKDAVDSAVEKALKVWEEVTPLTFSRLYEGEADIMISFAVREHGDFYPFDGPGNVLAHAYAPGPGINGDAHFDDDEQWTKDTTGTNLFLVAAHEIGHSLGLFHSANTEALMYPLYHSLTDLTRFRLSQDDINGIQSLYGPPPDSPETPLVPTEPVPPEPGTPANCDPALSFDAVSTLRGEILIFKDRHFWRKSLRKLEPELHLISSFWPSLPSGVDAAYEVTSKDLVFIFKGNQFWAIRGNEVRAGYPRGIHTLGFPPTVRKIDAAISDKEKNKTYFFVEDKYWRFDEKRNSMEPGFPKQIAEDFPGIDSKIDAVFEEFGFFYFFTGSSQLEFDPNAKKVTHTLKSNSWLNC
Chain of CYP3A4 (P08684 whole entry, the tested form may be a part): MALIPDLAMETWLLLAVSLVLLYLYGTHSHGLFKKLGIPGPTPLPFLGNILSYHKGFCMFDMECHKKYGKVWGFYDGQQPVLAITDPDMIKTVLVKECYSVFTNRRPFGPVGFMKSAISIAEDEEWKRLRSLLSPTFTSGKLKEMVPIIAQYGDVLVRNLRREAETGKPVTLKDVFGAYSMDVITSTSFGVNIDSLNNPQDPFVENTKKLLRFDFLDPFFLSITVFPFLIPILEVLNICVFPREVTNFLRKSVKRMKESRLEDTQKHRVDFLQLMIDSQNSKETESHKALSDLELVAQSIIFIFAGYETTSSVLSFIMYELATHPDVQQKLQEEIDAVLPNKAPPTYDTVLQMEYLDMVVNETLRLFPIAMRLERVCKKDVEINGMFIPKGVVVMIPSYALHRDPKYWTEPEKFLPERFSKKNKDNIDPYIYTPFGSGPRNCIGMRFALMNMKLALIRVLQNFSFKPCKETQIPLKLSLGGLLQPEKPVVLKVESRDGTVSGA
Chain of 72 kDa type IV collagenase (P08253 whole entry): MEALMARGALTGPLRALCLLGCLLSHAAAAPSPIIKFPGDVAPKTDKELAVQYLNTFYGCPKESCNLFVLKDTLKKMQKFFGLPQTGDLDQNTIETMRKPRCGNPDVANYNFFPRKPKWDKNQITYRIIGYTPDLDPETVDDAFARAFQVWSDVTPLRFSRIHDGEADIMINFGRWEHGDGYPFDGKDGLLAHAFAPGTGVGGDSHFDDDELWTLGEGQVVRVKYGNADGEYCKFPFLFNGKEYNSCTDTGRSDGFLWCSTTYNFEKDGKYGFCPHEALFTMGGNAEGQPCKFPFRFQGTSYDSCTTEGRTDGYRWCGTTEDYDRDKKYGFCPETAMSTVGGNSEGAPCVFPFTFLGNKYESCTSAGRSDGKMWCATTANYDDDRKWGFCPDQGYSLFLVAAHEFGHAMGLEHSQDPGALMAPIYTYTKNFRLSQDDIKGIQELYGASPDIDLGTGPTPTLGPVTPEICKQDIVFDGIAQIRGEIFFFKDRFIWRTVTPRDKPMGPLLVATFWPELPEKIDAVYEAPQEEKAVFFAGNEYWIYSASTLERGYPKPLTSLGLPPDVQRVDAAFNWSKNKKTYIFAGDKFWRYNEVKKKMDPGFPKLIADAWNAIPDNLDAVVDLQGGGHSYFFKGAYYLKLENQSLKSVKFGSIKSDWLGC
Chain of Neutrophil collagenase (P22894 whole entry): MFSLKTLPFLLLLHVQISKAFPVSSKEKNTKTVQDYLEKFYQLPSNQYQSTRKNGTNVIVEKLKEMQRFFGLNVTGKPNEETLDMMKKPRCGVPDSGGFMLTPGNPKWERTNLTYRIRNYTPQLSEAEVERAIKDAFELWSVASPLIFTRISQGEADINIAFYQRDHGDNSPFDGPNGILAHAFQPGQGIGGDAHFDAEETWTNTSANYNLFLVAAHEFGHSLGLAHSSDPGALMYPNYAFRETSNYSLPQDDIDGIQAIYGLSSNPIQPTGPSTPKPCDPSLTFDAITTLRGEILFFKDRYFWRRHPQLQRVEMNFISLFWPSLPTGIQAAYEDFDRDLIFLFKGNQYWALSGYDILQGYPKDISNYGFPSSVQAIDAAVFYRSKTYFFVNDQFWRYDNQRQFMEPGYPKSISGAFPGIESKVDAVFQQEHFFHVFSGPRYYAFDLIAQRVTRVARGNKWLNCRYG
Description for Collagenase 3: Inhibition of recombinant human AMPA-activated MMP13 using Cy3-PLGLK(Cy5Q)AR-NH2 as substrate measured after 40 mins by spectrofluorimetric method

In the case of `O=C(NCc1cccc(-c2ccc(CS(=O)(=O)Cc3n[nH]c(=O)[nH]3)cc2)c1)c1nc2ccccc2c(=O)[nH]1`, at 10 µM the inhibition at CYP3A4 was 29%. Moreover, in data set [1], the Papp amounted to 0.7 ×10⁻⁶ cm/s. Also, the IC50 (commonly the concentration at which inhibition is half-maximal) on Matrilysin was greater than 10000 nM; against Collagenase 3, 0.071 nM; on Stromelysin-2, 150 nM; in data set [6], 9500 nM; in data set [7] it was greater than 10000 nM; in [8], 23 nM. The IC50 was greater than 10000 nM in data set [10]; 12 nM at Neutrophil collagenase; greater than 10000 nM on Interstitial collagenase; greater than 10000 nM in data set [11]; 2400 nM on Stromelysin-1. For the same molecule, the bioavailability (usually dose-corrected exposure relative to a reference, in per cent) in data set [2] was 1.3%. Moreover, the microsomal CLint turned out to be 7 µL/min/mg in data set [3] and 13 µL/min/mg in data set [5]. The clearance in data set [4] was 5.38 mL/min/kg. Moreover, in data set [9], the concentration in solution (solubility) was 0.48 µg/mL (≈ 0.905 µM). In [12], the Vd came out at 0.32 L/kg.
